# Reference: patent US12496301B2, “Use of androgen receptor degrader for the treatment of spinal and bulbar muscular atrophy” (Arvinas Operations, Inc., priority 2023, dated 2025)
# “Also recorded” adds a separate entry of the source.
# Legend:
# [1] = biological target: T1, endogenous mouse AR (Mus musculus, UniProt P19091); experiment: Endogenous mouse AR degradation in muscle of hAR100Q mice, capillary immunoassay; type: in vivo
# T1 construct: from tissue; host or cells: mouse LABC muscle (C57Bl/6 and hAR100Q mice); quadriceps (hAR100Q mice)
# T1 sequence (P19091 1-899): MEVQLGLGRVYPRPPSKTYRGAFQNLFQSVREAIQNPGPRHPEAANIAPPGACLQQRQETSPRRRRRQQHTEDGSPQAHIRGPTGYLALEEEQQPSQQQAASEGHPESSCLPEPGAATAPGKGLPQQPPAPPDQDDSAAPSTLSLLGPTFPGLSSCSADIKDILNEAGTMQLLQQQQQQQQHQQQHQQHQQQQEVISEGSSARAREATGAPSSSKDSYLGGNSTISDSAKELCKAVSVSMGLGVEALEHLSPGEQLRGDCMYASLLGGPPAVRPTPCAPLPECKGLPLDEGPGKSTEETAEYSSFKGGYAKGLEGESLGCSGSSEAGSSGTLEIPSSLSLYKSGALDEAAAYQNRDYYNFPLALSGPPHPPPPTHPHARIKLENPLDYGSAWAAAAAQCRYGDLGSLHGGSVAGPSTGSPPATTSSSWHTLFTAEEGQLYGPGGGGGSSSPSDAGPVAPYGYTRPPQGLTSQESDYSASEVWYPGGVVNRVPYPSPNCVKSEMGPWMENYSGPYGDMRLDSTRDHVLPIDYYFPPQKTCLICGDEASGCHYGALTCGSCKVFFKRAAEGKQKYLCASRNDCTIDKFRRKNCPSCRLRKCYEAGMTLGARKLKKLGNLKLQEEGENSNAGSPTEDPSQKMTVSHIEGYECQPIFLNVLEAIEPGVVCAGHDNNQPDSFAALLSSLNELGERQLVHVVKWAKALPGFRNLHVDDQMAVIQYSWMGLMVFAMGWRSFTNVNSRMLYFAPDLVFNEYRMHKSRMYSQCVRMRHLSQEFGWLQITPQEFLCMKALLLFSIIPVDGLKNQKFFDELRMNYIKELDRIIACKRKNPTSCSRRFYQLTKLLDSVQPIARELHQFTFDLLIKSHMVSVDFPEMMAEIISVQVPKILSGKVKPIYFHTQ
# Experimental: (§1) Mouse endogenous AR, human AR100Q, and high molecular weight hAR100Q from hAR100Q mice were quantified by capillary immunoassay. Tissue lysates were prepared as described above using antibodies to AR and resolved by capillary electrophoresis (ProteinSimple). High molecular weight AR was quantified as the area under the curve (AUC) from 300 to 600 kDa.
# (§2) A parallel cohort of hAR100Q mice was maintained in order to evaluate AR degradation at the 11-week timepoint. hAR100Q mice in this tissue cohort were fed chow identical to the mice that underwent muscle strength and endurance tests and were euthanized at 11-weeks of age.
# [2] = system: polyQ-AR; experiment: polyQ-AR degradation in SBMA patient hiPSC-derived myotubes, capillary immunoassay; type: cell-based, human; conditions: two donor hiPSC lines, 24 hours
# Experimental: Lysates for hiPSC-derived myotubes were prepared in lysis buffer ([…], 50 mM sodium chloride, 1% NP-40, 1% SDS) supplemented with Halt Protease Inhibitor (78437 Thermo Fisher Scientific), Benzonase, and MgCl2 (1 mM final concentration). The lysates were cleared by centrifugation at 4° C. and supernatants were quantified using the BIO-RAD DC protein assay (5000112 BIO-RAD). The AR and protein levels were quantified by an automated capillary immunoassay experiment (ProteinSimple). The AR and Myosin Protein levels were quantified and normalized to total protein.
# Control and SBMA hiPSCs were differentiated into myotubes as previously described (Caron, L. et al. 2016, STEM CELLS Transl. Med. 5, 1145-1161) using the skeletal muscle differentiation kit (Amsbio). hiPSCs were dissociated to single cells using Accutase and plated on Geltrex-coated 10 cm culture plates at a density of 200,000 cells per plate with SBMA hiPSCs in skeletal muscle induction media (SKM01, AMSBIO). Media changes were performed every second day until cells were confluent (˜7 days). The resulting myogenic precursor cells were then dissociated to single cells using Accutase and replated on Matrigel-coated 24-well tissue culture plate with 500 μL of cells at 35,000 cells per mL in skeletal myoblast media (SKM02, AMSBIO). Half media changes were performed every second day until myoblasts reached confluence (˜7 days). The media was then switched to myotube medium (SKM03, ASMBIO). Media changes every second day until myotube formation was confirmed by microscopy. Myotubes were treated on day 20 of differentiation (6 days' worth of SKM03 media) with compounds diluted in DMSO for a final DMSO concentration of 0.01% in SKM03 media. The cells were lysed 24 hours later in Pierce RIPA buffer (Cat. No. 89900, ThermoFisher) supplemented with 1× Halt protease inhibitor cocktail (Cat. No. 87786, ThermoFisher), 1 mM MgCl2, and 1 μL Benzonase Nuclease. AR protein was measured by capillary electrophoresis. […]
# [3] = system: human AR100Q; experiment: hAR100Q (polyQ-AR) degradation in muscle of hAR100Q mice, capillary immunoassay; type: in vivo
# Experimental: as §1, §2
# [4] = biological target: T2, human AR100Q (Homo sapiens, UniProt P10275, INS80QQQQQQQQQQQQQQQQQQQQQQQQQQQQQQQQQQQQQQQQQQQQQQQQQQQQQQQQQQQQQQQQQQQQQQQQQQQQQ); experiment: as above; type: in vivo
# T2 construct: full-length human AR harboring 100 CAG repeats in exon 1 (hAR100Q); from tissue; host or cells: LABC and quadriceps muscle of transgenic hAR100Q mice (C57BL/6J background, pCAGGS promoter)
# T2 sequence (P10275 with tags, fused parts or gaps with the stated changes): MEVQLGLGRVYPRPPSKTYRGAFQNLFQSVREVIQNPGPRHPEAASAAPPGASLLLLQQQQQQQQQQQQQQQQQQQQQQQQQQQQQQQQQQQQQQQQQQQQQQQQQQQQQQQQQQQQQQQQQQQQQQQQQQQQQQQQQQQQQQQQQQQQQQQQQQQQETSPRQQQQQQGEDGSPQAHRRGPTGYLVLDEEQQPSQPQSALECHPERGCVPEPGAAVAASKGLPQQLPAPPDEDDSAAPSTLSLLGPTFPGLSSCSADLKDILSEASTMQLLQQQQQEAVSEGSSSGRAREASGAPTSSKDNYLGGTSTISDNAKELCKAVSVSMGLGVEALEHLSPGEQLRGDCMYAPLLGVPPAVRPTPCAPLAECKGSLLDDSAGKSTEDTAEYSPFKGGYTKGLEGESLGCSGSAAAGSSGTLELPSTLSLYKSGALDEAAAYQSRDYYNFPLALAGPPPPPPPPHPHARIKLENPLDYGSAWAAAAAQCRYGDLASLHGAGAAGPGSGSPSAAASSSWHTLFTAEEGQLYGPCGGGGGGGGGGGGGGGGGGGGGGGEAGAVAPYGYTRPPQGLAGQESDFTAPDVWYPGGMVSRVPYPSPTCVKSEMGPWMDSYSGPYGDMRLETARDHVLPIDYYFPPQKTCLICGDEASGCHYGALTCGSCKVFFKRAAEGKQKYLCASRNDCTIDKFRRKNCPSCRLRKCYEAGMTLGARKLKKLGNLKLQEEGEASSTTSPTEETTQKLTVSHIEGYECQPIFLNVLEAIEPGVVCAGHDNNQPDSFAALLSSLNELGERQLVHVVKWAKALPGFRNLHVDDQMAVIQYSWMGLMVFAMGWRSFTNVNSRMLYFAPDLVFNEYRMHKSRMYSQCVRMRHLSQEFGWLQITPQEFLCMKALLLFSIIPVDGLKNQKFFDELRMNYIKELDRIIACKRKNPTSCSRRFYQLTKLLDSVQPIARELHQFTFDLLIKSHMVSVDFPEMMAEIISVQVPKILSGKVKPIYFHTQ
# Experimental: as §1, §2
# [5] = LABC, 11 weeks of age, chow approx. 15 mg/kg
smiles,measurement,setting,value
"CC(C)N(CC1CCN(c2ncc(C(=O)N[C@H]3C(C)(C)[C@H](Oc4ccc(C#N)c(Cl)c4)C3(C)C)cn2)CC1)[C@H]1C[C@H](Oc2ccc3c(c2)C(=O)N(C2CCC(=O)NC2=O)C3=O)C1 (stereo partly drawn) [Compound A, N-((1r,3r)-3-(3-chloro-4-cyanophenoxy)-2,2,4,4-tetramethylcyclobutyl)-2-(4-((((1r,3r)-3-((2-(2,6-dioxopiperidin-3-yl)-1,3-dioxoisoindolin-5-yl)oxy)cyclobutyl)(isopropyl)amino)methyl)piperidin-1-yl)pyrimidine-5-carboxamide]",reduction of endogenous mouse (WT) AR in LABC vs vehicle,[1]; [5],77%
same,reduction of WT AR in quadriceps vs vehicle,[1]; quadriceps,65%
same,DC50,[2],0.6 to 0.8 nM
same,"Dmax, polyQ-AR in SBMA hiPSC-myotubes",[2],83-96%
same,reduction of monomeric hAR100Q (polyQ-AR) in LABC vs vehicle,[3]; [5],70%
same,reduction of polyQ-AR (hAR100Q) in quadriceps,[3]; quadriceps,43%
same,AR/polyQ-AR degraded in the quadriceps muscle,"[3]; quadriceps, AR and polyQ-AR together",40-60%
same,reduction of high molecular weight (aggregated) hAR100Q in LABC,"[4]; LABC, 11 weeks of age",did not induce degradation; also recorded: did not reach significance
same,reduction of high molecular weight polyQ-AR (HMW hAR100Q) in quadriceps,[4]; quadriceps,trended towards a reduction
